# Tests used:
# Assay in all cases: relative viability (nuclei count vs DMSO), 5 days (fraction); higher = more cells survive
# [1] = compound: COC1=CC=C(C=C1)CN2C=CC3=C2C=C(C=C3)C(=O)NO + CS(=O)(=O)N1CCN(Cc2cc3nc(-c4cccc5[nH]ncc45)nc(N4CCOCC4)c3s2)CC1 [Pictilisib] (partner 1 µM)
# How it was run: (§1)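 The day after seeding in 1536-well plates, lung cancer cell lines were treated by pin tool with a single drug, or with a fixed anchor-drug dose together with five library-drug doses (not always all listed) in √10 steps. After 5 days, a combined fix-and-stain solution (final 0.05% Triton X-100, 1% formaldehyde, 1 ug/ml Hoechst) was added. Nuclei counted on 4× images gave relative viability as treated counts over vehicle counts, reported as the median of duplicate plates.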
# [2] = compound: COC1=CC=C(C=C1)CN2C=CC3=C2C=C(C=C3)C(=O)NO + CC(C)C[C@H](NC(=O)[C@H](Cc1ccccc1)NC(=O)c1cnccn1)B(O)O [Bortezomib] (partner 0.002 µM)
# How it was run: as §1
# [3] = compound: C[C@]1(c2nc3c(C(N)=O)cccc3[nH]2)CCCN1 [Veliparib] + Cc1nc(Nc2ncc(C(=O)Nc3c(C)cccc3Cl)s2)cc(N2CCN(CCO)CC2)n1 [Dasatinib] (partner 0.075 µM)
# How it was run: as §1
# [4] = compound: COC1=CC=C(C=C1)CN2C=CC3=C2C=C(C=C3)C(=O)NO + O=C(c1cc(Cc2n[nH]c(=O)c3ccccc23)ccc1F)N1CCN(C(=O)C2CC2)CC1 [Olaparib] (partner 8 µM)
# How it was run: as §1
Cell Line,relative viability ([1]; first compound 0.08 µM),relative viability ([1]; first compound 0.253 µM),relative viability ([1]; first compound 0.8 µM),relative viability ([1]; first compound 2.53 µM),relative viability ([1]; first compound 8 µM),relative viability ([2]; first compound 0.08 µM),relative viability ([2]; first compound 0.253 µM),relative viability ([2]; first compound 0.8 µM),relative viability ([2]; first compound 2.53 µM),relative viability ([2]; first compound 8 µM),relative viability ([3]; first compound 0.02 µM),relative viability ([3]; first compound 0.06325 µM),relative viability ([3]; first compound 0.2 µM),relative viability ([3]; first compound 0.6325 µM),relative viability ([3]; first compound 2 µM),relative viability ([4]; first compound 0.08 µM),relative viability ([4]; first compound 0.253 µM),relative viability ([4]; first compound 0.8 µM),relative viability ([4]; first compound 2.53 µM),relative viability ([4]; first compound 8 µM)
201T,0.687,0.716,0.752,0.725,0.683,1.09,1.1,1.1,1.14,1.06,0.529,0.572,0.537,0.614,0.52,0.846,0.833,0.881,0.844,0.832
A549,0.446,0.585,0.504,0.502,0.472,–,–,–,–,–,–,–,–,–,–,–,0.38,0.39,0.337,0.252
A-427,–,0.743,0.787,0.643,0.606,–,1.01,1.04,0.994,0.931,–,0.714,0.699,0.657,0.539,0.251,–,0.71,0.711,0.724
ABC-1,–,0.761,0.78,0.724,0.662,–,0.274,0.296,0.325,0.318,–,0.355,0.604,0.591,0.367,–,0.745,0.73,0.734,0.87
BEN,0.504,0.589,0.582,0.544,0.499,0.675,0.671,0.906,0.754,0.656,0.232,0.292,0.377,0.361,0.266,1.09,1.03,0.95,0.913,0.924
CAL-12T,0.244,–,0.527,0.377,0.283,0.987,–,1.06,1.06,0.862,0.287,0.354,0.386,0.308,0.468,0.674,0.675,0.709,0.735,0.649
COR-L23,0.496,0.788,0.714,0.727,0.711,0.93,0.996,1.08,1.03,0.922,0.428,0.434,0.361,0.425,0.471,0.256,0.382,0.292,0.369,0.286
COR-L 105,–,0.348,0.462,0.363,0.306,–,0.741,0.654,0.625,0.277,0.355,0.273,0.352,0.331,0.324,0.558,0.743,0.808,0.715,0.706
Calu-6,0.426,0.946,0.981,0.969,0.826,1.07,0.979,0.968,0.953,0.871,–,–,–,–,–,–,0.544,0.556,0.602,0.51
ChaGo-K-1,–,0.655,0.801,0.706,0.462,–,0.752,0.962,0.942,0.868,0.336,0.615,0.566,0.624,0.584,–,0.459,0.424,0.409,0.324
EBC-1,0.351,0.514,0.401,0.424,0.338,0.574,0.496,0.532,0.54,0.44,–,–,–,–,–,–,0.656,0.748,0.695,0.633
EKVX,0.327,0.443,0.424,0.522,0.439,1.03,0.762,1.16,1.08,1.21,–,0.658,0.66,0.532,0.48,–,0.802,0.739,0.868,0.758
EMC-BAC-2,0.448,0.549,0.555,0.553,0.466,0.972,1.13,1.18,1.07,0.944,0.362,0.27,0.333,0.305,0.315,0.315,–,0.524,0.471,0.445
EPLC-272H,0.233,0.333,0.341,0.287,0.218,0.925,0.953,1.16,0.861,0.855,0.291,0.367,0.323,0.325,0.36,–,0.716,0.981,0.916,0.686
H3255,0.428,0.411,0.416,0.436,0.467,0.73,0.623,0.733,0.739,0.894,0.303,0.344,0.253,0.402,0.32,0.549,0.482,0.605,0.579,0.532
HARA,0.467,0.492,0.403,0.43,0.33,0.536,1.22,1.15,1.12,1.13,0.254,0.383,0.294,0.231,0.267,–,0.835,1.09,0.711,0.762
HCC-15,0.522,0.743,0.866,0.833,0.741,0.854,1.09,1.13,1.02,0.998,–,0.524,0.629,0.603,0.582,0.635,0.71,0.729,0.846,0.728
HCC-44,0.547,0.746,0.616,0.568,0.547,0.845,0.912,0.897,0.914,0.907,–,–,–,–,–,0.974,0.931,1.01,1,1.06

# From the supplement of paper PMC10307832
